Test results published in patent US10626081B2, “Farnesoid X receptor agonists and uses thereof” (Metacrine, Inc., priority 2015, dated 2020).

Tests used:
FXR [1] = target: T1, FXR (Homo sapiens, UniProt Q96RI1); test: In Vitro FXR Assay (TK): TK-ECRE-luc reporter in transfected CV-1 cells; assay type: cell-based; conditions: CV-1 cells transfected with hFXR, hRXR, 18 h incubation, luminescence
T1 construct: expressed in transfected cells; host or cells: CV-1 cells
T1 sequence (Q96RI1 1-486): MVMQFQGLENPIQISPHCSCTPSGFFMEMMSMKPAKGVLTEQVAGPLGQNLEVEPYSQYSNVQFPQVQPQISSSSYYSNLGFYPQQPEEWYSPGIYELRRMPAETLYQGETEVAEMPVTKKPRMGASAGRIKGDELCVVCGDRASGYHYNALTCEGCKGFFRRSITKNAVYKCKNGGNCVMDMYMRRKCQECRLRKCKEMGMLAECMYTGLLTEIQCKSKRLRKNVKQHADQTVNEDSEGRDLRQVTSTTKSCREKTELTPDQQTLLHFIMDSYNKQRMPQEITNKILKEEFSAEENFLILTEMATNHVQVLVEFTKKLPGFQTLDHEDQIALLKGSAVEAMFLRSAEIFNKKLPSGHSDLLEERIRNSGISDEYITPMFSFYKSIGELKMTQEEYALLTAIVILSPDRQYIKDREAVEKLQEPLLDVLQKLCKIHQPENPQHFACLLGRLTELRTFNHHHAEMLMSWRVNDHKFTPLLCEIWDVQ
T1 sequence (P19793 1-462 partner): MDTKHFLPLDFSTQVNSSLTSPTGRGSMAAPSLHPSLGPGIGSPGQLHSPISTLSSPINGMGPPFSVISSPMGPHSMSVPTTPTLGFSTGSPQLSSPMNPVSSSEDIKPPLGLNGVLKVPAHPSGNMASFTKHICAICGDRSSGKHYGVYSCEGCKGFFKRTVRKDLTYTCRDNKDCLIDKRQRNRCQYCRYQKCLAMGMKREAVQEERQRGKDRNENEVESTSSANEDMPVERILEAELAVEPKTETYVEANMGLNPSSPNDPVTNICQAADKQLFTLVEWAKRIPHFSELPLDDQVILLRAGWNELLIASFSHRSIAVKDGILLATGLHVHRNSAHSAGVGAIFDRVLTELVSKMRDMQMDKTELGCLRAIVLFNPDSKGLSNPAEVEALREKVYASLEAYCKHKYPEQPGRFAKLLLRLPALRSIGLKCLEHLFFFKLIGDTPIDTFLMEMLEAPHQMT
Outline: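 CV-1 cells in charcoal-stripped FBS medium were transiently cotransfected with hFXR, hRXR, TK-ECRE-luc and pCMX-YFP plasmids. After 18 h, compounds serially diluted in DMSO were added for 18 h at 37 °C, 5% CO2, then cells were lysed and luminescence read.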

FXR [2] = target: T1, FXR; test: In Vitro FXR Assay (PGL3): luciferase reporter in transfected CV-1 cells; assay type: cell-based; conditions: CV-1 cells transfected with hFXR, hRXR, PGL3-ECRE*6-luc; 18 h incubation; luminescence
Outline: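 CV-1 cells in charcoal-stripped FBS were transiently co-transfected with full-length human FXR, RXR, an ECRE×6-luciferase reporter, β-gal and YFP plasmids. Transfected cells were reseeded onto half-log compound dilutions and incubated 18 h. Luciferase luminescence was read after lysis, and EC50 was determined.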

SMILES	EC50 (FXR [1])	Cmpd/Fex (ratio of the EC50 for the test compound relative to the EC50 of the Fexaramine control) (FXR [2])
COC(=O)/C=C/c1cccc(N(Cc2ccc(C3CCCCC3)cc2)C(=O)C2CCCCC2)c1 [compound 13, (E)-methyl 3-(3-(N-(4-cyclohexylbenzyl)cyclohexanecarboxamido)phenyl)acrylate]	> 10000 nM	+ (‘+’ means Cmpd/Fex > 100)
COC(=O)/C=C/c1cccc(N(Cc2ccc(-c3ccc4c(c3)ncn4C)cc2)C(=O)C2CCCCC2)c1 [compound 74, (E)-Methyl 3-(3-(N-(4-(1-methyl-1H-benzo[d]imidazol-5-yl)benzyl)cyclohexanecarboxamido)phenyl) acrylate]	1000 to 10000 nM	+ (‘+’ means Cmpd/Fex > 100)
COC(=O)/C=C/c1cccc(N(Cc2ccc(-c3ccc(N(C)C)c(OC)c3)cc2)C(=O)C2CCCCC2)c1 [compound 75, (E)-methyl 3-(3-(N-((4′-(dimethylamino)-3′-methoxy-[1,1′-biphenyl]-4-yl)methyl)cyclohexanecarboxamido)phenyl) acrylate]	1000 to 10000 nM	++ (‘++’ means Cmpd/Fex > 10 & < 100)
CN(C)c1ccc(-c2ccc(CN(C(=O)C3CCCCC3)c3cccc(/C=C/C(=O)OCCO)c3)cc2)cc1 [compound 86, (E)-2-Hydroxyethyl 3-(3-(N-((4′-(dimethylamino)-[1,1′-biphenyl]-4-yl)methyl)cyclohexanecarboxamido)phenyl) acrylate]	1000 to 10000 nM	+++ (‘+++’ means Cmpd/Fex < 10)
COC(=O)/C=C/c1cccc(N(Cc2ccc(-c3cscn3)cc2)C(=O)C2CCCCC2)c1 [compound 68, (E)-Methyl 3-(3-(N-(4-(thiazol-4-yl)benzyl)cyclohexanecarboxamido)phenyl) acrylate]	1000 to 10000 nM	+ (‘+’ means Cmpd/Fex > 100)
COC(=O)/C=C/c1cccc(N(Cc2ccc(-c3ccc(OC(C)C)cc3)cc2)C(=O)C2CCCCC2)c1 [compound 32, (E)-Methyl 3-(3-(N-((4′-isopropoxy-[1,1′-biphenyl]-4-yl)methyl)cyclohexanecarboxamido)phenyl)acrylate]	1000 to 10000 nM	++ (‘++’ means Cmpd/Fex > 10 & < 100)
COC(=O)CCc1cc(C)cc(N(Cc2ccc(-c3ccc(N(C)C)cc3)cc2)C(=O)C2CCCCC2)c1 [compound 90, Methyl 3-(3-(N-((4′-(dimethylamino)-[1,1′-biphenyl]-4-yl)methyl)cyclohexanecarboxamido)-5-methylphenyl)propanoate]	1000 to 10000 nM	+++ (‘+++’ means Cmpd/Fex < 10)
COC(=O)/C=C/c1cccc(N(Cc2ccc(-c3ccc(N(C)C(=O)OC(C)(C)C)cc3)cc2)C(=O)C2CCCCC2)c1 [compound 60, (E)-Methyl 3-(3-(N-((4′-((tert-butoxycarbonyl)(methyl)amino)-[1,1′-biphenyl]-4-yl)methyl)cyclohexanecarboxamido)phenyl) acrylate]	> 10000 nM	+ (‘+’ means Cmpd/Fex > 100)
COC(=O)C(C)Cc1cccc(N(Cc2ccc(-c3ccc(N(C)C)cc3)cc2)C(=O)C2CCCCC2)c1 (stereo not shown) [compound 95, Methyl 3-(3-(N-((4′-(dimethylamino)-[1,1′-biphenyl]-4-yl)methyl)cyclohexanecarboxamido)phenyl)-2-methylpropanoate]	1000 to 10000 nM	++ (‘++’ means Cmpd/Fex > 10 & < 100)
CN(C)c1ccc(-c2ccc(CN(C(=O)C3CCCCC3)c3cccc(/C=C/C(=O)O)c3)cc2)cc1 [compound 88, (E)-3-(3-(N-((4′-(dimethylamino)-[1,1′-biphenyl]-4-yl)methyl)cyclohexanecarboxamido)phenyl)acrylic acid]	> 10000 nM	+ (‘+’ means Cmpd/Fex > 100)
CN(C)c1ccc(-c2ccc(CN(c3cccc(/C=C/C(=O)O)c3)C(=O)[C@H]3CC[C@H](O)CC3)cc2)cc1 [compound 89, (E)-3-(3-((1s,4s)-N-((4′-(Dimethylamino)-[1,1′-biphenyl]-4-yl)methyl)-4-hydroxycyclohexane-carboxamido)phenyl) acrylic acid]	> 10000 nM	+ (‘+’ means Cmpd/Fex > 100)
COC(=O)CCc1cc(N(Cc2ccc(-c3ccc(N(C)C)cc3)cc2)C(=O)C2CCCCC2)ccc1C [compound 91, Methyl 3-(5-(N-((4′-(dimethylamino)-[1,1′-biphenyl]-4-yl)methyl)cyclohexanecarboxamido)-2-methylphenyl)propanoate]	> 10000 nM	+ (‘+’ means Cmpd/Fex > 100)
COC(=O)/C=C(\C)c1cccc(N(Cc2ccc(-c3ccc(N(C)C)cc3)cc2)C(=O)C2CCCCC2)c1 [compound 45, (E)-Methyl 3-(3-(N-((4′-(dimethylamino)-[1,1′-biphenyl]-4-yl)methyl)cyclohexanecarboxamido)phenyl)but-2-enoate]	1000 to 10000 nM	+++ (‘+++’ means Cmpd/Fex < 10)

Continued, values first:

EC50 (FXR [1])	Cmpd/Fex (ratio of the EC50 for the test compound relative to the EC50 of the Fexaramine control) (FXR [2])	SMILES
1000 to 10000 nM	+ (‘+’ means Cmpd/Fex > 100)	COC(=O)/C=C/c1cccc(N(Cc2ccc(-c3cccc(OC(F)(F)F)c3)cc2)C(=O)C2CCCCC2)c1 [compound 30, (E)-Methyl 3-(3-(N-((3′-(trifluoromethoxy)-[1,1′-biphenyl]-4-yl)methyl)cyclohexanecarboxamido)phenyl)acrylate]
≤ 1000 nM	+++ (‘+++’ means Cmpd/Fex < 10)	COC(=O)/C=C/c1cccc(N(Cc2ccc(-c3ccc(N(C)C)c(C#N)c3)cc2)C(=O)C2CCCCC2)c1 [compound 72, (E)-Methyl 3-(3-(N-((3′-cyano-4′-(dimethylamino)-[1,1′-biphenyl]-4-yl)methyl)cyclohexanecarboxamido)phenyl) acrylate]
≤ 1000 nM	+++ (‘+++’ means Cmpd/Fex < 10)	COC(=O)/C=C/c1cccc(N(Cc2ccc(-c3ccc(OC)c(C#N)c3)cc2)C(=O)C2CCCCC2)c1 [compound 64, (E)-Methyl 3-(3-(N-((3′-cyano-4′-methoxy-[1,1′-biphenyl]-4-yl)methyl)cyclohexanecarboxamido)phenyl) acrylate]
≤ 1000 nM	+++ (‘+++’ means Cmpd/Fex < 10)	COC(=O)/C=C/c1cccc(N(Cc2ccc(-c3ccc(N(C)C)nc3)cc2)C(=O)C2CCCCC2)c1 [compound 38, (E)-Methyl 3-(3-(N-(4-(6-(dimethylamino)pyridin-3-yl)benzyl)cyclohexanecarboxamido)phenyl) acrylate]
≤ 1000 nM	+++ (‘+++’ means Cmpd/Fex < 10)	COC(=O)C#Cc1cccc(N(Cc2ccc(-c3ccc(N(C)C)cc3)cc2)C(=O)C2CCCCC2)c1 [compound 87, Methyl 3-(3-(N-((4′-(Dimethylamino)-[1,1′-biphenyl]-4-yl)methyl)cyclohexanecarboxamido)phenyl) propiolate]
≤ 1000 nM	+++ (‘+++’ means Cmpd/Fex < 10)	COC(=O)/C=C/c1cccc(N(Cc2ccc(-c3ccc(N(C)C)cc3)c(F)c2)C(=O)C2CCCCC2)c1 [compound 50, (E)-methyl 3-(3-(N-((4′-(dimethylamino)-2-fluoro-[1,1′-biphenyl]-4-yl)methyl)cyclohexanecarboxamido)phenyl) acrylate]
≤ 1000 nM	+++ (‘+++’ means Cmpd/Fex < 10)	COC(=O)/C=C/c1cccc(N(Cc2ccc(-c3ccc(N(C)C)cc3)cc2)C(=O)C2CCCC2)c1 [compound 14, (E)-Methyl 3-(3-(N-((4′-(dimethylamino)-[1,1′-biphenyl]-4-yl)methyl)cyclopentanecarboxamido)phenyl)acrylate]
